Laboratory results: ChEMBL document CHEMBL1129140, “Synthesis of C-oxetanosyl-thiazole and its carbocyclic analog nucleosides as potential chemotherapeutic agents” (Bioorg Med Chem Lett, 1996)
Active and inactive are the calls of the source. No cut-off for these calls is given here.

How the values were obtained:
Format in all cases: functional, cell-based
[1] = target: High affinity nerve growth factor receptor (Rattus norvegicus) (UniProt P35739); assay: Induction of NGF receptor-induced differentiation of PC12 cells at 1-100 ug/ml; settings: PC-12
Chain of High affinity nerve growth factor receptor (Rattus norvegicus) (P35739 whole entry): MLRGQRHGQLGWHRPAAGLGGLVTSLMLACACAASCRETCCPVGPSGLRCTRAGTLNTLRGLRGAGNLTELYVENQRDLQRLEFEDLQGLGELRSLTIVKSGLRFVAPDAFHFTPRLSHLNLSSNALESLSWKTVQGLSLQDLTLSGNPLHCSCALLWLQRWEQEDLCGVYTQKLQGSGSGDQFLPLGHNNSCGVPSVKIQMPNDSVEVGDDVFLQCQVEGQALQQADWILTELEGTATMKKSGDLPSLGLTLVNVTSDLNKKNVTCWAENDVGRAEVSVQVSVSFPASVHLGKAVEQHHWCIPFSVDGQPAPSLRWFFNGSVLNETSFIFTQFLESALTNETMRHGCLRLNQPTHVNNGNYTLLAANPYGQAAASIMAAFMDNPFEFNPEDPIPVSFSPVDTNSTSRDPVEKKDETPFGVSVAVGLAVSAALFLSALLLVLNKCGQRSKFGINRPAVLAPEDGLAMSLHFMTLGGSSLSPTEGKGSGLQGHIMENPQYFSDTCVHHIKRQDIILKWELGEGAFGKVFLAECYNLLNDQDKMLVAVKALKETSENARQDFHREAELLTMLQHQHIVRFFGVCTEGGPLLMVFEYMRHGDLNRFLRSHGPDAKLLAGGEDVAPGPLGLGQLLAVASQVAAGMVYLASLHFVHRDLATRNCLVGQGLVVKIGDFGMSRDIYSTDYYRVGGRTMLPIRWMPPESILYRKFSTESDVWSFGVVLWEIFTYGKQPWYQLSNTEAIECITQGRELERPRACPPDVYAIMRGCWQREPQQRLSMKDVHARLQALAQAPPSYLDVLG

[2] = target: High affinity nerve growth factor receptor (Rattus norvegicus) (UniProt P35739); assay: Induction of NGF receptor-induced differentiation of PC12 cells at 100 and 10 ug/ml; settings: PC-12
PC-12 [3] = assay: Induction of PC12 cell differentiation at 100 ug/ml; settings: Rattus norvegicus
[4] = target: High affinity nerve growth factor receptor (Rattus norvegicus) (UniProt P35739); assay: Inhibition of NGF receptor-induced differentiation of PC12 cells at 100 ug/ml (No effect); settings: PC-12
PC-12 [5] = assay: Inhibition of PC12 cell differentiation at 100 ug/ml (No effect); settings: Rattus norvegicus

## NC(=O)c1csc([C@@H]2O[C@H](CO)C(O)[C@H]2O)n1 (single isomer, unassigned)
[1]
  Activity: Active

## NC(=O)c1csc([C@@H]2C[C@H](CO)C2CO)n1 (stereo not given in full)
[2]
  Induction: Active
PC-12 [3]
  Induction: Active

## NC(=O)c1csc([C@@H]2O[C@H](CO)C2CO)n1 (stereo not given in full)
[4]
  NA: inactive
PC-12 [5]
  NA: inactive
